Measurements reported in publication PMC9481151, “Discovery of new symmetrical and asymmetrical nitrile-containing 1,4-dihydropyridine derivatives as dual kinases and P-glycoprotein inhibitors: synthesis, in vitro assays, and in silico studies” (Journal of Enzyme Inhibition and Medicinal Chemistry, 2022).

Experiments:
T-47D = assay: NCI single dose (10 µM) SRB screen; type: cell-based, human; conditions: breast cancer, 48 h
MCF7 = assay: NCI single dose (10 µM) SRB screen; type: cell-based, human; conditions: breast cancer, 48 h
SK-MEL-28 = assay: NCI single dose (10 µM) SRB screen; type: cell-based, human; conditions: melanoma, 48 h
MDA-MB-468 = assay: NCI single dose (10 µM) SRB screen; type: cell-based, human; conditions: breast cancer, 48 h
KM12 = assay: NCI single dose (10 µM) SRB screen; type: cell-based, human; conditions: colon cancer, 48 h
RPMI-8226 = assay: NCI single dose (10 µM) SRB screen; type: cell-based, human; conditions: leukaemia, 48 h
COLO 205 = assay: NCI single dose (10 µM) SRB screen; type: cell-based, human; conditions: colon cancer, 48 h
NCI-H322M = assay: NCI single dose (10 µM) SRB screen; type: cell-based; conditions: non-small cell lung cancer, 48 h
SNB-75 = assay: NCI single dose (10 µM) SRB screen; type: cell-based, human; conditions: CNS cancer, 48 h
PC-3 = assay: NCI single dose (10 µM) SRB screen; type: cell-based, human; conditions: prostate cancer, 48 h
RXF 393 = assay: NCI single dose (10 µM) SRB screen; type: cell-based, human; conditions: renal cancer, 48 h
HCC-2998 = assay: NCI single dose (10 µM) SRB screen; type: cell-based, human; conditions: colon cancer, 48 h
U251 = assay: NCI single dose (10 µM) SRB screen; type: cell-based, human; conditions: CNS cancer, 48 h
786-0 = assay: NCI single dose (10 µM) SRB screen; type: cell-based, human; conditions: renal cancer, 48 h
SNB-19 = assay: NCI single dose (10 µM) SRB screen; type: cell-based, human; conditions: CNS cancer, 48 h
NCI-H23 = assay: NCI single dose (10 µM) SRB screen; type: cell-based, human; conditions: non-small cell lung cancer, 48 h
M14 = assay: NCI single dose (10 µM) SRB screen; type: cell-based, human; conditions: melanoma, 48 h
BT-549 = assay: NCI single dose (10 µM) SRB screen; type: cell-based, human; conditions: breast cancer, 48 h
TK-10 = assay: NCI single dose (10 µM) SRB screen; type: cell-based, human; conditions: renal cancer, 48 h
HS578T = assay: NCI single dose (10 µM) SRB screen; type: cell-based, human; conditions: breast cancer, 48 h
IGROV1 = assay: NCI single dose (10 µM) SRB screen; type: cell-based, human; conditions: ovarian cancer, 48 h
HCT-116 = assay: NCI single dose (10 µM) SRB screen; type: cell-based, human; conditions: colon cancer, 48 h
SK-OV-3 = assay: NCI single dose (10 µM) SRB screen; type: cell-based, human; conditions: ovarian cancer, 48 h
ACHN = assay: NCI single dose (10 µM) SRB screen; type: cell-based, human; conditions: renal cancer, 48 h
UO-31 = assay: NCI single dose (10 µM) SRB screen; type: cell-based, human; conditions: renal cancer, 48 h
CCRF-CEM = assay: NCI single dose (10 µM) SRB screen; type: cell-based, human; conditions: leukaemia, 48 h
NCI-H522 = assay: NCI single dose (10 µM) SRB screen; type: cell-based, human; conditions: non-small cell lung cancer, 48 h
NCI 60 cancer cell lines = assay: NCI single dose (10 µM) SRB screen, mean over panel; type: cell-based, human; conditions: mean over 60 cell lines, 48 h
OVCAR-4 = assay: NCI single dose (10 µM) SRB screen; type: cell-based, human; conditions: ovarian cancer, 48 h
HCT-15 = assay: NCI single dose (10 µM) SRB screen; type: cell-based, human; conditions: colon cancer, 48 h
NCI-H460 = assay: NCI single dose (10 µM) SRB screen; type: cell-based, human; conditions: non-small cell lung cancer, 48 h
UACC-62 = assay: NCI single dose (10 µM) SRB screen; type: cell-based, human; conditions: melanoma, 48 h
Staphylococcus aureus = assay: Agar well diffusion method
HL-60(TB) = assay: NCI single dose (10 µM) SRB screen; type: cell-based, human; conditions: leukaemia, 48 h
OVCAR-3 = assay: NCI single dose (10 µM) SRB screen; type: cell-based, human; conditions: ovarian cancer, 48 h
CAKI-1 = assay: NCI single dose (10 µM) SRB screen; type: cell-based, human; conditions: renal cancer, 48 h
Pseudomonas aeruginosa = assay: Agar well diffusion method
OVCAR-5 = assay: NCI single dose (10 µM) SRB screen; type: cell-based, human; conditions: ovarian cancer, 48 h
SN12C = assay: NCI single dose (10 µM) SRB screen; type: cell-based, human; conditions: renal cancer, 48 h
Bacillus subtilis = assay: Agar well diffusion method
Escherichia coli = assay: Agar well diffusion method
SK-MEL-2 = assay: NCI single dose (10 µM) SRB screen; type: cell-based, human; conditions: melanoma, 48 h
UACC-257 = assay: NCI single dose (10 µM) SRB screen; type: cell-based, human; conditions: melanoma, 48 h
Aspergillus flavus = assay: Agar well diffusion method
K-562 = assay: NCI single dose (10 µM) SRB screen; type: cell-based, human; conditions: leukaemia, 48 h
MALME-3M = assay: NCI single dose (10 µM) SRB screen; type: cell-based, human; conditions: melanoma, 48 h
Candida albicans = assay: Agar well diffusion method
NCI-H226 = assay: NCI single dose (10 µM) SRB screen; type: cell-based, human; conditions: non-small cell lung cancer, 48 h
SR = assay: NCI single dose (10 µM) SRB screen; type: cell-based, human; conditions: leukaemia, 48 h
SF-295 = assay: NCI single dose (10 µM) SRB screen; type: cell-based, human; conditions: CNS cancer, 48 h

CCOC(=O)C1=C(C)NC(C)=C(C(=O)OCCOC)C1c1cccc(C#N)c1 (racemic) [Compound 2k, (±)-3-Ethyl 5-(2-methoxyethyl) 4-(3-cyanophenyl)-2,6-dimethyl-1,4-dihydropyridine-3,5-dicarboxylate]
GI% T-47D (T-47D): – (Only GI% ≥ 10 are shown) | GI% MCF7 (MCF7): – (Only GI% ≥ 10 are shown) | GI% SK-MEL-28 (SK-MEL-28): – (Only GI% ≥ 10 are shown) | GI% MDA-MB-468 (MDA-MB-468): – (Only GI% ≥ 10 are shown) | GI% KM12 (KM12): – (Only GI% ≥ 10 are shown) | GI% RPMI-8226 (RPMI-8226): – (Only GI% ≥ 10 are shown) | GI% COLO 205 (COLO 205): – (Only GI% ≥ 10 are shown) | GI% NCI-H322M (NCI-H322M): – (Only GI% ≥ 10 are shown) | GI% SNB-75 (SNB-75): – (Only GI% ≥ 10 are shown) | GI% PC-3 (PC-3): – (Only GI% ≥ 10 are shown) | GI% RXF 393 (RXF 393): – (Only GI% ≥ 10 are shown) | GI% HCC-2998 (HCC-2998): – (Only GI% ≥ 10 are shown) | GI% U251 (U251): – (Only GI% ≥ 10 are shown) | GI% 786-0 (786-0): – (Only GI% ≥ 10 are shown) | GI% SNB-19 (SNB-19): – (Only GI% ≥ 10 are shown) | GI% NCI-H23 (NCI-H23): – (Only GI% ≥ 10 are shown) | GI% M14 (M14): – (Only GI% ≥ 10 are shown) | GI% BT-549 (BT-549): – (Only GI% ≥ 10 are shown) | GI% TK-10 (TK-10): – (Only GI% ≥ 10 are shown) | GI% HS578T (HS578T): – (Only GI% ≥ 10 are shown) | GI% IGROV1 (IGROV1): – (Only GI% ≥ 10 are shown) | GI% HCT-116 (HCT-116): – (Only GI% ≥ 10 are shown) | GI% SK-OV-3 (SK-OV-3): – (Only GI% ≥ 10 are shown) | GI% ACHN (ACHN): – (Only GI% ≥ 10 are shown) | GI% UO-31 (UO-31): – (Only GI% ≥ 10 are shown) | GI% CCRF-CEM (CCRF-CEM): – (Only GI% ≥ 10 are shown) | GI% NCI-H522 (NCI-H522): – (Only GI% ≥ 10 are shown) | Mean GI% (NCI 60 cancer cell lines): −1% | GI% OVCAR-4 (OVCAR-4): – (Only GI% ≥ 10 are shown) | GI% HCT-15 (HCT-15): – (Only GI% ≥ 10 are shown) | GI% NCI-H460 (NCI-H460): – (Only GI% ≥ 10 are shown) | GI% UACC-62 (UACC-62): – (Only GI% ≥ 10 are shown) | zone of inhibition at 1000 µg/mL (Staphylococcus aureus; Staphylococcus aureus, 24 h, read-out: Diameter of inhibition zone, S. aureus): 17 mm | % activity index, S. aureus (Staphylococcus aureus; relative to ciprofloxacin): 70.8% | GI% HL-60(TB) (HL-60(TB)): 12% | GI% OVCAR-3 (OVCAR-3): – (Only GI% ≥ 10 are shown) | GI% CAKI-1 (CAKI-1): – (Only GI% ≥ 10 are shown) | zone of inhibition at 1000 µg/mL (Pseudomonas aeruginosa; Pseudomonas aeruginosa, 24 h, read-out: Diameter of inhibition zone, P. aeruginosa): 20 mm | % activity index, P. aeruginosa (Pseudomonas aeruginosa; relative to ciprofloxacin): 86.9% | GI% OVCAR-5 (OVCAR-5): – (Only GI% ≥ 10 are shown) | GI% SN12C (SN12C): – (Only GI% ≥ 10 are shown) | zone of inhibition at 1000 µg/mL (Bacillus subtilis; Bacillus subtilis, 24 h, read-out: Diameter of inhibition zone, B. subtilis): 13 mm | % activity index, B. subtilis (Bacillus subtilis; relative to ciprofloxacin): 56.5% | zone of inhibition at 1000 µg/mL (Escherichia coli; Escherichia coli, 24 h, read-out: Diameter of inhibition zone, E. coli): 15 mm | % activity index, E. coli (Escherichia coli; relative to ciprofloxacin): 57.7% | GI% SK-MEL-2 (SK-MEL-2): – (Only GI% ≥ 10 are shown) | GI% UACC-257 (UACC-257): – (Only GI% ≥ 10 are shown) | zone of inhibition at 1000 µg/mL (Aspergillus flavus; Aspergillus flavus, 24 h, read-out: Diameter of inhibition zone, A. flavus): 18 mm | % activity index, A. flavus (Aspergillus flavus; relative to clotrimazole): 72% | GI% K-562 (K-562): 10% | GI% MALME-3M (MALME-3M): – (Only GI% ≥ 10 are shown) | zone of inhibition at 1000 µg/mL (Candida albicans; Candida albicans, 24 h, read-out: Diameter of inhibition zone, C. albicans): 16 mm | % activity index, C. albicans (Candida albicans; relative to clotrimazole): 59.2% | GI% NCI-H226 (NCI-H226): – (Only GI% ≥ 10 are shown) | GI% SR (SR): 13% | GI% SF-295 (SF-295): – (Only GI% ≥ 10 are shown)
